Source: patent publication US20140004122A1, “METHODS FOR TREATING OR PREVENTING CHOLESTEROL RELATED DISORDERS” (AMGEN INC., priority 2011, published 2014)

Test system: hypercholesterolemic subjects with a 10 year Framingham risk score of 10% or less
Test: 12 week monotherapy dose-ranging study (Example 24)
Type: in vivo, human
Method: Ezetimibe was not blinded. The end-of-study visit and the last estimation of lipids was at week 12 for subjects on Q4W IP schedule or on ezetimibe and week 14 for subjects on Q2W IP schedule.
Males and females, ≧18 to ≦75 years of age, were eligible for this study. Fasting LDL-C was ≧100 mg/dL (2.6 mmol/L) and <190 mg/dL (4.9 mmol/L) and fasting triglycerides ≦400 mg/dL (4.5 mmol/L) by central laboratory at screening.
The primary endpoint was the percent change from baseline in LDL-C at week 12. Secondary endpoints included percent changes in apolipoprotein B (ApoB), lipoprotein (a) (Lp(a)), and in the ratio of total cholesterol to high-density lipoprotein (HDL)-C. Tolerability and safety were also evaluated.

With `O=C1[C@H](CC[C@H](O)c2ccc(F)cc2)[C@@H](c2ccc(O)cc2)N1c1ccc(F)cc1` [Ezetimibe, ezetimibe, reference compound] the “percent change from baseline in LDL-C” value (week 12, final data, ezetimibe QD PO) was 14% and the “Least squares mean percent change from baseline (%) in LDL-C” value (week 12, Ezetimibe QD (N = 45)) was −14.26%.
